Results from US10485769B2, “Cholesteryl ester transfer protein (CETP) inhibition in the treatment of cancer” (KING ABDULLAH UNIVERSITY OF SCIENCE AND TECHNOLOGY, priority 2015, dated 2019).

How the values were obtained:
MCF-7 tumors = assay: Efficacy in MCF-7 xenograft nude mouse model of BC; assay type: in vivo, nude mice; details: 21 days
Protocol: (§6) FIG. 3: Comparative efficacy and toxicity study in MCF-7 xenograft nude mouse model of BC. The efficacy of single i.p. injection of vehicle, PL (2 mg/kg) and AP (5 mg/kg) in 5 mice in each group was compared over a period of 21 days.
(§7) MCF-7 tumors grown up to 300 mm3 in four nude mice were harvested, dissected into 1-2 mm3 fragments and implanted into the study group for further testing. Nude mice (with tumor volume of 150 mm3) were treated with 25% Polyethylene glycol (PEG) 400 as vehicle, 2 mg/kg PL and 5 mg/kg AP for 21 days during which tumor volume, body weight and, at the time of sacrifice, tumor weight was measured.

MCF-7 cells [1] = assay: APOPercentage assay, apoptosis in MCF-7 cells; assay type: cell-based, human; details: 10 μM
Protocol: (§1) FIG. 5: Cholesterol depletion by PL and AP. BJ, BT20 and MCF-7 cells were treated with 10 μM PL or AP for 2 h and cholesterol levels were determined with the Amplex Red Cholesterol kit as per manufacturer's instructions. Cells treated with 5 mg/ml MBCD was used as a positive control and fluorescence was measured with a Tecan plate reader. MCF-7 cells were pre-incubated with 1 mM cholesterol for 1 h followed by treatment with 10 μM PL or AP for 2 h (A). Apoptosis was determined by flow cytometry with the APOPercentage kit or Cells treated with MBCD and 5 mM H2O2 served as positive controls (B). Values represent the means±SD of three independent experiments.
Next we asked if addition of cholesterol can rescue MCF-7 cells from undergoing apoptosis when treated with PL or AP.

MCF-7 CETP siRNA cells = assay: MMP, caspase-3/7 activity and apoptosis in CETP knockdown MCF-7 cells; assay type: cell-based, human; details: for caspases-3/7 activity / increase of level of apoptosis: 10 μM PL or AP; for caspases-3/7 activity: CETP knockdown; for increase of level of apoptosis: MCF-7 CETP siRNA cells; for reduction in MMP: 10 μM, CETP knockdown compared to Ctrl siRNA cells
Protocol: (§2) FIG. 10: The effect of CETP mRNA silencing on MMP (A), Capase-3/7 activity (B) and apoptosis in MCF-7 (C) and BJ (D) untransfected, cntl siRNA and CETP knockout cells after treatment with 10 μM PL or AP. Values represent the means±SD of three independent experiments.
FIG. 12: The effect of CETP mRNA knockout on Capase-3/7 activity (A) and apoptosis (B) in MCF-7 cntl siRNA and CETP knockout cells after treatment with 25 μM tamoxifen for 24 h. Values represent the means±SD of three independent experiments.
Since, as shown above, CETP is required for optimal growth of MCF-7 cells, we further hypothesized that CETP may help cancer cell to resist/escape apoptotic signals thus preventing cell death. Several apoptotic markers such as MOMP, phosphatidylserine exposure and caspase-3/7 activity were tested to establish a link between CETP and apoptosis.
(§3) Next, we intended to see if CETP silencing increased sensitivity of MCF-7 cells to apoptosis.
To test if effect of CETP knockout on apoptosis in MCF-7 is limited to AP, we treated the CETP knockout MCF-7 cells with tamoxifen (a known first line drug for breast cancer treatment). […] This observation was not limited to PL and AP as similar observations were made in CETP knockdown cells treated with tamoxifen (FIG. 12).

MCF-7 cells [2] = assay: Mitochondrial Outer Membrane Potential (MOMP) by flow cytometry; assay type: cell-based, human; details: 10 μM PL, AP; 100 mM H2O2 positive control; versus untreated cells
Protocol: FIG. 2: Mode of induction in MCF-7 cells after treatment with AP and PL was determined by measuring changes in MOMP and levels of apoptosis-associated proteins. The cells were incubated with 10 μM AP and PL for different time intervals to capture the timeline of apoptosis induction in MCF-7 cells. The changes in MOMP were measured using flow cytometry after treating MCF-7 cells with PL and AP for 1, 2 and 4 h (A). The alteration in expression of several apoptosis-associated proteins were determined using western blotting after incubating MCF-7 cells for 1, 2, 4, 6 h with PL (C, E) and AP (D. F).
The changes in Mitochondrial Outer Membrane Potential (MOMP) and proteins involved in the apoptotic cascade were assessed (FIG. 2).

MCF-7 cells [3] = assay: Total cholesterol in cells, Amplex Red Cholesterol kit; assay type: cell-based, human; details: 10 μM, within 2 h, compared to untreated cells
Protocol: as §1
Next, we determined the effects of PL and AP on cholesterol levels in cells. Within 2 h of treatment with PL or AP, total cholesterol was reduced by 35% in MCF-7 cells as compared to untreated cells (FIG. 5). To test whether cholesterol depletion occurred in other cell types or if this was limited to ER positive BC cells, BJ and BT20 cells were also treated with PL or AP (Fig.).

BJ CETP knockdown cells = assay: Apoptosis in BJ CETP knockdown cells; assay type: cell-based, human; details: 10 μM PL or AP
Protocol: as §2, §3

[4] = Toxicity in MCF-7 xenograft nude mice (survival, body weight, ALT, AST); details: for survival of animals: 5 animals per group
Protocol: as §6, §7

CETP [5] = assay: CETP mRNA in mice tumor samples, qRT-PCR; assay type: in vivo; details: 2 mg/kg PL, 5 mg/kg AP
Protocol: (§4) FIG. 7: Levels of CETP mRNA in tumor (A) and protein in serum (B) in mice tumor samples after treatment with 2 mg/kg PL or 5 mg/kg AP were determined with the RT-PCR and western blotting, respectively. Fold change in expression of serum protein was determined using densitometry analysis of western blots using ImageJ (C). CETP activity in serum was estimated using CETP activity kit (name of kit/manufacturer) (D). Values represent the means±SD of three independent experiments. * where p≤0.05, and ** where p≤0.005.
(§5) We performed qRT-PCR using mRNA isolated from mice tumor samples to determine the expression of CETP after treatment with PL and AP (FIG. 7A). […] CETP mRNA is translated into 74 kD protein comprised of 476 amino acids that localizes in plasma. […] CETP protein levels in mice serum samples were determined by western blotting (FIG. 7B).

[6] = tested on: lipid rafts of MCF-7 cells; assay: Lipid raft GM1 staining (CT-B Alexa 488); assay type: cell-based, human; details: 10 μM, over time (10 min to 2 h)
Protocol: FIG. 4: Lipid raft GM1 staining in MCF-7 cells with the Vybrant® Alexa Fluor® 488 Lipid Raft Labeling Kit. Cells were cultured in 96-well plates and stained with CT-B Alexa 488 in untreated cells, and after treatment with 10 μM PL or AP for 10 min, 30 min, 1 h and 2 h.
Cholesterol plays an integral role in the formation of lipid rafts, steroid hormone synthesis and cell membrane formation. […] Cancer cells have a greater affinity for cholesterol to pace with demands of proliferation and synthesis of new membranes and lipid rafts. Pathway predictions derived from microarray expression data pointed at the impairment of cholesterol related processes by AP. To confirm whether cholesterol related pathways were affected by PL or AP, we performed lipid raft staining in MCF-7 cells and cholesterol quantitation in both MCF-7 cells and plasma samples obtained from mice. […].

CETP [7] = assay: CETP protein in mice serum, western blotting and densitometry; assay type: in vivo; details: 2 mg/kg PL, 5 mg/kg AP, compared to Vehicle
Protocol: as §4, §5

[8] = 2 h, after pre-incubation with 1 mM cholesterol for 1 h
[9] = 2 h, without addition of cholesterol
[10] = 2 mg/kg PL, 5 mg/kg AP, 21 days

Structure (SMILES)	reduction of tumor volume (MCF-7 tumors; 2 mg/kg PL, 5 mg/kg AP)	level of apoptosis (MCF-7 cells [1]; 2 h)	apoptosis (MCF-7 cells [1]; [8])	apoptosis (MCF-7 cells [1]; [9])	level of apoptosis (MCF-7 cells [1]; 6 h)	caspases-3/7 activity (MCF-7 CETP siRNA cells)	increase of level of apoptosis (MCF-7 CETP siRNA cells)	reduction in MMP (MCF-7 CETP siRNA cells)	MOMP, fluorescence in the FL-2 channel (MCF-7 cells [2])	reduction of total cholesterol (MCF-7 cells [3])	sensitivity to apoptosis (BJ CETP knockdown cells)	survival of animals [4, 10]	reduction of CETP expression in tumors (mRNA) (CETP [5])	distribution of lipid rafts (GM1 in plasma membranes) [6]	CETP protein levels in serum (CETP [7])	further results
CC1=CC(=O)c2c(O)cccc2C1=O [PL, 5-hydroxy-2-methyl-1,4-naphthoquinone, reference compound]	approximately 17%	~20%	10%	30%	~45%	significantly increased	10%	13%	lower fluorescent values	35%	no increased sensitivity to apoptosis	one mouse died	no effect	disrupted	slightly reduced	tumor weight in comparison to vehicle (MCF-7 tumors; 2 mg/kg PL): no difference; ALT activity ([4]; 2 mg/kg PL): increased; AST activity ([4]; 2 mg/kg PL): increased; mice succumbed to treatment due to toxicity ([4]; 5 mg/kg PL, within four to six days): 8 mice
CC(=O)Oc1cccc2c1C(=O)C=C(C)C2=O [AP, Acetyl Plumbagin]	37%	~20%	negligible	20%	~45%	significantly increased	10%	17%	lower fluorescent values	35%	no increased sensitivity to apoptosis	survived	60%	disrupted	upregulated	inhibition of tumor growth (MCF-7 tumors; 5 mg/kg AP): 45%; reduction of ALT activity ([4]; 5 mg/kg AP): 36%; reduction of AST activity ([4]; 5 mg/kg AP): 7%; body weight ([4]; 5 mg/kg AP, 21 days): remained unaffected
